Laboratory results published in patent US20110251286A1, “Crystalline salts and/or co-crystals of O-desmethyltramadol” (GRUENENTHAL GmbH, priority 2010, published 2011).

Experiment: Release in artificial intestinal juice
Type: physicochemical
Settings: for Release in artificial intestinal juice, percent of the substance released: permeable bag, amount calculated on 100 mg free base
Experimental: Investigations on release were carried out in a Sotax AT7 smart release apparatus with UV measurement (Perkin Elmer photometer).
A vessel with Wood apparatus was used (for intrinsic release).
A pressing of 0.5 cm^2 surface area (diameter 8 mm) was produced with a force of 200 N using approximately 100 mg of active ingredient.
Release was carried out in a release medium, which is composed as described below: • Intestinal juice without pancreas powder, pH 6.8 (analogous to Ph. Eur.); 250.0 ml 6.8 g of potassium dihydrogenphosphate R+0.896 g of NaOH+water to 1000.0 ml.
Release was carried out in a release volume of in each case 500±5 ml at a temperature of the release medium of 37±1° C. with a stirring speed of 100±5 rpm.
The content determination was carried out by means of spectroscopic methods (UV spectroscopy, wavelength: 271 nm, cuvette: 10 mm). Sample taking was carried out manually.
In this release experiment, the individual compounds were placed in a permeable bag in an amount in each case calculated on 100 mg of the free base.
The results, expressed in percent of the substance released, are reproduced in the following tables. In this case, the compounds denote: HCl: hydrochloride; A: cinnamate; B: palmitate; C: decanoate; E: hemi-fumarate and F: hemi-sebacate.

Compound	Release in artificial intestinal juice, percent of the substance released (t 2 min)	Release in artificial intestinal juice, percent of the substance released (t 4 min)	Release in artificial intestinal juice, percent of the substance released (t 6 min)	Release in artificial intestinal juice, percent of the substance released (t 8 min)	Release in artificial intestinal juice, percent of the substance released (t 10 min)	Release in artificial intestinal juice, percent of the substance released (t 12 min)	Release in artificial intestinal juice, percent of the substance released (t 15 min)	Release in artificial intestinal juice, percent of the substance released (t 30 min)	release rate compared to the hydrochloride salt (in artificial intestinal juice)
CCCCCCCCCC(=O)O.CN(C)CC1CCCCC1(O)c1cccc(O)c1 (centres unmarked) [C-1]	79.57%	93.67%	99.13%	99.87%	99.63%	99.80%	99.92%	100.27%	–
CN(C)CC1CCCCC1(O)c1cccc(O)c1.CN(C)CC1CCCCC1(O)c1cccc(O)c1.O=C(O)C=CC(=O)O (centres unmarked) [E-2]	95.38%	96.67%	95.80%	96.46%	96.47%	96.45%	96.19%	96.42%	–
octanoate	–	–	–	–	–	–	–	–	decreased release rates compared to the hydrochloride salt
CN(C)CC1CCCCC1(O)c1cccc(O)c1.CN(C)CC1CCCCC1(O)c1cccc(O)c1.O=C(O)CCCCCCCCC(=O)O (centres unmarked) [F-2]	96.05%	99.26%	100.16%	1.21%	100.92%	101.24%	101.22%	101.26%	–
CN(C)CC1CCCCC1(O)c1cccc(O)c1.CN(C)CC1CCCCC1(O)c1cccc(O)c1.O=C(O)CCCCCCCCC(=O)O (centres unmarked) [F-1]	90.31%	95.86%	98.37%	99.10%	98.48%	98.55%	99.15%	98.74%	–
CN(C)CC1CCCCC1(O)c1cccc(O)c1.O=C(O)C=Cc1ccccc1 (centres unmarked) [A-2]	53.05%	76.86%	86.98%	96.27%	94.24%	95.42%	98.53%	98.80%	–
